Bounds are passed on as bounds.

T1 sequence (Q9Y4B6 1058-1396): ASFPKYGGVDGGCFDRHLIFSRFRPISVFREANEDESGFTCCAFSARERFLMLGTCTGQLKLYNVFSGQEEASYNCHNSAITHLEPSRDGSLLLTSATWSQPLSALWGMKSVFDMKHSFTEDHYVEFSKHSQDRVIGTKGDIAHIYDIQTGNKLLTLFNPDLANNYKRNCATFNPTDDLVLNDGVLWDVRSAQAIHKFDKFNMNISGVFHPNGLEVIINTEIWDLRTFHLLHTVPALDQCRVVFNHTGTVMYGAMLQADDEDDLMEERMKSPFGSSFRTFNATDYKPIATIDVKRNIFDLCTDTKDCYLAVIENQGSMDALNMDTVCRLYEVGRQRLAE

The test has as its target T1, DCAF1 (1058-1396) (Homo sapiens, UniProt Q9Y4B6).
T1 construct: a fragment of a DCAF1 protein that includes amino acid residues A1058 to E1396; His6 (N, cleaved yes); made in house; host or cells: Sf9 insect cells (Bac-to-Bac baculovirus, pFastBacHT vector)
The experiment in a line: Surface plasmon resonance (SPR) binding assay, compound binding to DCAF1. The conditions noted are these: immobilized DCAF1 (1058-1396), steady state affinity model, 25° C. As to the method: Binding affinities of specific exemplary compounds to DCAF1 (1058-1396), which is a fragment of a DCAF1 protein that includes amino acid residues A1058 to E1396 were determined by a surface plasmon resonance (SPR) assay. Briefly, purified DCAF1 (1058-1396) proteins were immobilized at a density of 9,000-11,000 resonance units (RUs) on a CMS sensor chip. Sensorgrams were recorded at different concentrations of compounds in multi-cycle kinetic format. Data were analyzed using a steady state affinity model through Biacore Evaluation Software to provide equivalent dissociation constants (Kd).
Binding affinities of compounds to DCAF1 were determined by a surface plasmon resonance (SPR) assay. Purified DCAF1 (1058-1396) proteins were immobilized on a CMS sensor chip, and a dose range of compound solutions were injected in multi-cycle kinetic format. Data were analyzed using a steady state model to provide equivalent dissociation constants (Kd).
Protein Expression and Purification: Human DCAF1 (1058-1396) (UniPro: Q9Y4B6) coding sequences were cloned into pFastBacHT vector and were expressed in Sf9 cells using Bac-to-Bac baculovirus expression system (Thermo Fisher Scientific). The expression construct for DCAF1 (1058-1396) included a N-terminal His6-tag to facilitate the purification. DCAF1 (1058-1396) proteins were obtained from supernatants of cell lysates and purified through sequential application of Ni affinity chromatography (Ni-NTA column, Bio-Rad), Tag removal using TEV protease, and size-exclusion chromatography (Superdex 200 column, GE Healthcare).
Surface plasmon resonance (SPR) binding assays: SPR studies were performed on a Biacore X100 plus or T200 instrument (GE Healthcare). Immobilization of purified DCAF1 (1058-1396) was carried out at 25° C. using a CMS sensor chip. The surface was pre-equilibrated in HBS-EP running buffer (10 mM HEPES, pH 7.4, 150 mM NaCl, 3 mM EDTA, 0.05% P20), before being activated with EDC/NHS. DCAF1 (1058-1396) was immobilized through amino groups to a density of 9,000-12,000 resonance units (RUs) on flow cell channel 2 (FC2), whereas flow cell channel 1 (FC1) was used as reference. Both DCAF1 immobilized and reference surfaces were deactivated with 1 M ethanolamine.
Interaction experiments were performed at 25° C. The compounds were prepared and serially diluted in HBS-EP running buffer containing final 2% DMSO (6-point two-fold serial dilution, 100 μM -3.125 μM final concentration of compounds). Compound Solutions were injected individually in multi-cycle kinetic format without regeneration (flow rate 30 μL/min, association time 60 s, dissociation time 60 s). Sensorgrams from reference surfaces and blank injections were subtracted from the raw data (double-referenced) and the data was solvent-corrected prior to analysis. Data were analyzed using a steady state affinity model through Biacore Evaluation Software to provide equivalent dissociation constants (Kd).
In the case of `COc1cc(C(=O)N2c3ccc(C)cc3C3CN(C)CCC32)ncn1` (centres unmarked) [CPD-064, (2,8-dimethyl-1,2,3,4,4a,9b-hexahydro-5H-pyrido [4,3-b]indol-5-yl)(6-methoxypyrimidin-4-yl)methanone], the Kd was > 100 µM.

In the case of `Cc1ccc2c(c1)[C@@H]1CN(C)CC[C@H]1N2C` (racemic) [CPD-034, trans-2,5,8-trimethyl-2,3,4,4a,5,9b-hexahydro-1H-pyrido[4,3-b]indole], the Kd was > 100 µM.

`Cc1ccc2c(c1)C1CN(C)CCC1N2C(=O)/C=C/c1ccc(S(=O)(=O)N2CCOCC2)cc1` (centres unmarked) [CPD-087, (E)-1-(2,8-dimethyl-1,2,3,4,4a,9b-hexahydro-5H-pyrido [4,3-b]indol-5-yl)-3-(4-(morpholinosulfonyl)phenyl)prop-2-en-1-one]: the Kd was 40 to 70 µM.

`CN1Cc2cc(NCCCCCCN)ccc2CC1CNc1ncccc1F` (centres unmarked) [CPD-018, N1-(3-(((3-fluoropyridin-2-yl)amino)methyl)-2-methyl-1,2,3,4-tetrahydroisoquinolin-7-yl)hexane-1,6-diamine]: the Kd was in the range of 40 to 70 µM.

For `Cc1ccc2[nH]c3c(c2c1)CN(CC(O)COc1ccc(C(=O)O)cc1)CC3` (centres unmarked) [CPD-056, 4-(2-hydroxy-3-(8-methyl-1,3,4,5-tetrahydro-2H-pyrido[4,3-b]indol-2-yl)propoxy)benzoic acid], the Kd is ≤ 40 µM.

As for `CN1CCc2c(c3ccccc3n2CCC(N)=O)C1` [CPD-060, 3-(2-methyl-1,2,3,4-tetrahydro-5H-pyrido[4,3-b]indol-5-yl)propanamide], the Kd lay within 70 to 100 µM.

For the compound `COc1cccc2c3c([nH]c12)CCN(C)C3` [CPD-047, 6-methoxy-2-methyl-2,3,4,5-tetrahydro-1H-pyrido[4,3-b]indole], the Kd is > 100 µM.

Consider `Cc1ccc(C(=O)N[C@H](C(=O)N2c3ccc(C)cc3C3CN(C)CCC32)C(C)C)cc1` (stereo partly drawn) [CPD-079, N-((2S)-1-(2,8-dimethyl-1,2,3,4,4a,9b-hexahydro-5H-pyrido [4,3-b]indol-5-yl)-3-methyl-1-oxobutan-2-yl)-4-methylbenzamide], for which the equilibrium dissociation constant (Kd) was > 100 µM.

Take `Cn1cccc1CNCc1ccccn1` [CPD-003, 1-(1-methyl-1H-pyrrol-2-yl)-N-(pyridin-2-ylmethyl)methanamine]: the Kd was > 100 µM.

For the compound `CN1CCc2[nH]c3ccc(Cl)cc3c2C1` [CPD-046, 8-chloro-2-methyl-2,3,4,5-tetrahydro-1H-pyrido[4,3-b]indole], the Kd is > 100 µM.

`NCCOCCOCCOCCn1cccc1CNCc1ccncc1` [CPD-006, 2-(2-(2-(2-(2-(((pyridin-4-ylmethyl)amino)methyl)-1H-pyrrol-1-yl)ethoxy)ethoxy)ethoxy)ethan-1-amine] yielded a Kd of 40 to 70 µM.

Regarding `Cc1cccc2c1[C@H]1CN(C)CC[C@H]1N2` (racemic) [CPD-041, cis-2,9-dimethyl-2,3,4,4a,5,9b-hexahydro-1H-pyrido[4,3-b]indole], the Kd was > 100 µM.

For `Fc1ccc2[nH]c3c(c2c1)CN(CCc1cnn[nH]1)CC3` [CPD-012, 2-(2-(1H-1,2,3-triazol-5-yl)ethyl)-8-fluoro-2,3,4,5-tetrahydro-1H-pyrido[4,3-b]indole], the Kd was ≤ 40 µM.

For the compound `Cc1ccc2c(c1)[C@@H]1CN(C)CC[C@H]1N2` (racemic) [CPD-032, trans-2,8-dimethyl-2,3,4,4a,5,9b-hexahydro-1H-pyrido [4,3-b]indole], the Kd is > 100 µM.

Take `CN1Cc2ccccc2CC1CNC(=O)c1nc(=N)[nH]c2c1CCCC2` (centres unmarked) [CPD-092, 2-imino-N-((2-methyl-1,2,3,4-tetrahydroisoquinolin-3-yl)methyl)-1,2,5,6,7,8-hexahydroquinazoline-4-carboxamide]: the Kd lay in the range of 40 to 70 µM.

`CC(C)c1ccc2[nH]c3c(c2c1)CN(CCc1cnn[nH]1)CC3` [CPD-009, 2-(2-(1H-1,2,3-triazol-5-yl)ethyl)-8-isopropyl-2,3,4,5-tetrahydro-1H-pyrido[4,3-b]indole] had a Kd of 40 to 70 µM.

With `O=C(CCN1CCc2[nH]c3ccccc3c2C1)N1CCOCC1` [CPD-048, 1-morpholino-3-(1,3,4,5-tetrahydro-2H-pyrido[4,3-b]indol-2-yl)propan-1-one], the Kd is ≤ 40 µM.

Take `CCn1nc(C2CC2)cc1C(=O)N1c2ccc(C)cc2C2CN(C)CCC21` (centres unmarked) [CPD-071, (3-cyclopropyl-1-ethyl-1H-pyrazol-5-yl)(2,8-dimethyl-1,2,3,4,4a,9b-hexahydro-5H-pyrido[4,3-b]indol-5-yl)methanone]: the Kd was > 100 µM.

Consider `Cc1ccc(CNCc2cnc[nH]2)o1` [CPD-024, N-((1H-imidazol-5-yl)methyl)-1-(5-methylfuran-2-yl) methanamine], for which the Kd is > 100 µM.

On to `Cc1ccc2c(c1)C1CN(C)CCC1N2S(=O)(=O)c1ccc(C(=O)C(C)C)cc1` (centres unmarked) [CPD-077, 1-(4-((2,8-dimethyl-1,2,3,4,4a,9b-hexahydro-5H-pyrido[4,3-b]indol-5-yl)sulfonyl)phenyl)-2-methylpropan-1-one], for which the Kd is > 100 µM.

Take `Cc1ccc2c(c1)C1CN(C)CCC1N2C(=O)c1cc2c(C)nn(-c3ccc(Cl)cc3)c2s1` (centres unmarked) [CPD-074, (1-(4-chlorophenyl)-3-methyl-1H-thieno[2,3-c]pyrazol-5-yl)(2,8-dimethyl-1,2,3,4,4a,9b-hexahydro-5H-pyrido[4,3-b]indol-5-yl)methanone]: the Kd is > 100 µM.

With `Cc1ccc2[nH]c3c(c2c1)CN(CCc1cnn[nH]1)CC3` [CPD-013, 2-(2-(1H-1,2,3-triazol-5-yl)ethyl)-8-methyl-2,3,4,5-tetrahydro-1H-pyrido[4,3-b]indole], the Kd lay within 40 to 70 µM.

Take `Cc1ccc2c(c1)C1CN(C)CCC1N2C(=O)/C=C/c1ccc2c(c1)OCO2` (centres unmarked) [CPD-086, (E)-3-(benzo[d][1,3]dioxol-5-yl)-1-(2,8-dimethyl-1,2,3,4,4a,9b-hexahydro-5H-pyrido[4,3-b]indol-5-yl) prop-2-en-1-one]: the Kd is > 100 µM.

On to `Cc1ccc2c(c1)C1CN(C)CCC1N2C(=O)/C=C/c1nccs1` (centres unmarked) [CPD-081, (E)-1-(2,8-dimethyl-1,2,3,4,4a,9b-hexahydro-5H-pyrido [4,3-b]indol-5-yl)-3-(thiazol-2-yl)prop-2-en-1-one], for which the dissociation constant (Kd) was > 100 µM.

Regarding `Cc1ccc2c(c1)C1CN(C)CCC1N2C(=O)c1cc(C#N)oc1C` (centres unmarked) [CPD-072, 4-(2,8-dimethyl-2,3,4,4a,5,9b-hexahydro-1H-pyrido[4,3-b]indole-5-carbonyl)-5-methylfuran-2-carbonitrile], the Kd is > 100 µM.

With `Cc1ccc2c(c1)C1CN(C)CCC1N2c1nc(S(=O)(=O)c2ccccc2)c(Cl)s1` (centres unmarked) [CPD-061, 5-chloro-2-(2,8-dimethyl-1,2,3,4,4a,9b-hexahydro-5H-pyrido [4,3-b]indol-5-yl)-4-(phenylsulfonyl)thiazole], the Kd was > 100 µM.

For the compound `COc1ccc(/C=C/C(=O)N2c3ccc(C)cc3C3CN(C)CCC32)cc1` (centres unmarked) [CPD-085, (E)-1-(2,8-dimethyl-1,2,3,4,4a,9b-hexahydro-5H-pyrido [4,3-b]indol-5-yl)-3-(4-methoxyphenyl)prop-2-en-1-one], the Kd was > 100 µM.

In turn, `CCN1CCc2[nH]c3ccccc3c2C1` [CPD-043, 2-ethyl-2,3,4,5-tetrahydro-1H-pyrido[4,3-b]indole] registered a Kd of 40 to 70 µM.

As for `O=C(O)CCN1CCc2[nH]c3ccc(Br)cc3c2C1` [CPD-054, 3-(8-bromo-1,3,4,5-tetrahydro-2H-pyrido[4,3-b]indol-2-yl)propanoic acid], the Kd was > 100 µM.

On to `COc1nn(C)cc1C(=O)N1c2ccc(C)cc2C2CN(C)CCC21` (centres unmarked) [CPD-070, (2,8-dimethyl-1,2,3,4,4a,9b-hexahydro-5H-pyrido[4,3-b]indol-5-yl)(3-methoxy-1-methyl-1H-pyrazol-4-yl)methanone], for which the Kd was > 100 µM.

As to `Cc1cccc2c1[C@H]1CN(C)CC[C@H]1N2C` (racemic) [CPD-042, cis-2,5,9-trimethyl-2,3,4,4a,5,9b-hexahydro-1H-pyrido[4,3-b]indole], the Kd was > 100 µM.

In turn, `CN1Cc2ccccc2CC1CNc1nccc(-c2ccncc2)n1` (centres unmarked) [CPD-090, N-((2-methyl-1,2,3,4-tetrahydroisoquinolin-3-yl)methyl)-4-(pyridin-4-yl)pyrimidin-2-amine] gave a Kd of 40 to 70 µM.

The term Kd denotes the equilibrium constant for the complex coming apart. Read a high Kd as lower affinity.

For the origin of these results see patent US20240197694A1, “MODIFIED PROTEINS AND PROTEIN BINDERS” (Cullgen (Shanghai), Inc., priority 2021, published 2024).
